Measurements: patent US20180207113A1, “VIVO INTRACELLULAR REPROGRAMMING COMPOSITION AND METHOD OF MAKING AND USING SAME” (priority 2017, published 2018)

Key:
C. elegans [1] = test: C. elegans lifespan; type: in vivo
Text: Urolithins extend lifespan and improve fitness in C. elegans.

C. elegans [2] = test: Mitochondrial function with age in C. elegans; type: in vivo
C. elegans [3] = test: Activity and fitness during aging in C. elegans (mobility, pharyngeal pumping); type: in vivo
mitophagy = test: Induction of mitophagy in vitro and in vivo; details: in vitro and in vivo following oral consumption

| Compound | lifespan (C. elegans [1]) | mortality observed at advanced ages (C. elegans [1]; at 50 μM) | dose-response effect on lifespan (C. elegans [1]; concentrations increased from 10 to 50 μM) | accumulation of dysfunctional mitochondria with age (C. elegans [2]) | mitochondrial respiratory capacity (C. elegans [2]; during aging) | normal activity during aging, including mobility and pharyngeal pumping (C. elegans [3]) | induction of mitophagy (mitophagy) | effect on lifespan (C. elegans [1]; at the same concentration (not given)) |
| --- | --- | --- | --- | --- | --- | --- | --- | --- |
| O=c1oc2cc(O)ccc2c2ccc(O)cc12 [UA, urolithin A] | extended lifespan | significantly delayed the mortality | clear dose-response effect | prevented the accumulation of dysfunctional mitochondria with age | maintaining mitochondrial respiratory capacity | prolonged normal activity during aging | induces mitophagy both in vitro and in vivo | – |
| O=c1oc2c(O)c(O)cc3c(=O)oc4c(O)c(O)cc1c4c23 [EA] | – | – | – | – | – | – | – | no effect on lifespan |
